Tests used:
[1] = molecular target: T1, human norepinephrine transporter (hNET) (Homo sapiens, UniProt P23975); experiment: Screening for compounds active at human norepinephrine transporter (hNET), scintillation proximity assay, competition with [3H]-Nisoxetine; type: binding; details: membranes of HEK-293 cells, SPA
T1 construct: expressed in transfected cells
Protocol: This assay was used to determine the affinity of ligands for the hNET transporter by competition with [^3H]-Nisoxetine. As in the hSERT assay of the above example, receptor-containing membranes were pre-coupled to the SPA beads and the binding of the appropriate radioligand to the transporter was measured. The light emission was proportional to the amount of bound radioligand, with unbound radioligand producing no signal.
HEK-293 cells (Tatsumi et al., Eur. J. Pharmacol. 1997, 30, 249-258) stably expressing recombinant hNET (Clone: HEK-hNET #2) were maintained with media (DMEM hi glucose with 10% FBS, 300 μg/ml G418 and 2 mM L-Glutamine) and incubated at 37° C. with 5% CO2. Cells were released from culture flasks using PBS for 1-2 minutes. […]
Cell membranes were prepared using a membrane preparation buffer of 50 mM TRIS (pH 7.4). […] After a second centrifugation, the pellet was re-homogenized and brought to a final volume determined during the assay. […]
^3[H] […] The mixtures were allowed to stand at room temperature for one hour, and were then counted on a Packard TopCount LCS, a generic SPA counting protocol settings (Energy Range: Low, Efficiency Mode: Normal, Region A: 1.50-35.00, Region B: 1.50-256.00, Count Time (min.): 0.40, Background Subtract: none, Half-Life Correction: no, Quench Indicator: tSIS, Platemap blank subtraction: No, Cross talk reduction: Off). […]

[2] = molecular target: T2, human dopamine transporter (hDAT) (Homo sapiens, UniProt Q01959); experiment: Screening for compounds active at human dopamine transporter (hDAT), scintillation proximity assay, competition with [3H]-Vanoxerine; type: binding; details: HEK-293 cells, SPA
T2 construct: expressed in transfected cells
Protocol: This assay was used to determine the affinity of ligands for the dopamine transporter by competition with [^3H]-Vanoxerine.
HEK-293 cells (Tatsumi et al., Eur. J. Pharmacol. 1997, 30, 249-258) stably expressing recombinant hDAT were maintained with media (DMEM hi glucose with 10% FBS, 300 μg/ml G418 and 2 mM L-Glutamine) and incubated at 37° C. with 5% CO2. Cells were plated four hours prior to experiment by placing approximately 30,000 cells per well (in PBS) on white, opaque Cell-Tak coated 96 well plates. Extra buffer was apriated from the cell plates using an ELx405 plate washer.
^3[H] vanoxerine (GBR 12909) radioligand, specific activity approximately 59 Ci/mmol, stock concentration, 400 nM, and 50 mM Tris-HCl, 300 mM NaCl, (pH 7.4) buffers were used for Scintillation Proximity Assay IC50/Ki determination. […]
The % inhibition was calculated for each compound tested [(Compound CPM at maximum concentration-Non-Specific CPM)/Total CPM*100]. […]
[formula] where max=total binding, min=non specific binding, x=concentration (M) of the tested compound and n=Hill slope. The inhibition dissociation constant (Ki) of each compound was determined according to the method of Cheng-Prusoff and then converted into negative logarithm (pKi) of the Ki.

T2 sequence (Q01959 whole entry): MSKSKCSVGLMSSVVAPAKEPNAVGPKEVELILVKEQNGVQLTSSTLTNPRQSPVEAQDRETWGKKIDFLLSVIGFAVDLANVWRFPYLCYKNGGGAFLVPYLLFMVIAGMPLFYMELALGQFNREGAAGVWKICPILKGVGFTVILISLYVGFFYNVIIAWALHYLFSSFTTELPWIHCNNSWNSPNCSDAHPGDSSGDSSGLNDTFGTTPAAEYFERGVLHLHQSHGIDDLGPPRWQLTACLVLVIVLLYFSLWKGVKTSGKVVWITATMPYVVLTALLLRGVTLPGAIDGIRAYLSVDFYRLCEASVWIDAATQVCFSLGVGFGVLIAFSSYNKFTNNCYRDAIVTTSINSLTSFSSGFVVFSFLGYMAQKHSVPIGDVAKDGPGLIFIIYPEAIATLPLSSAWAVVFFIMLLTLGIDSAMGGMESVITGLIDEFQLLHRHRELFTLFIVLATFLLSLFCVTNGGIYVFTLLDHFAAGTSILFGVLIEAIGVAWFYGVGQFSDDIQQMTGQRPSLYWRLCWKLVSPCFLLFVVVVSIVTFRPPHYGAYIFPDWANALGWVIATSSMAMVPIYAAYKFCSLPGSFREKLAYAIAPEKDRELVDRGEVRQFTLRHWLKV
T1 sequence (P23975 whole entry): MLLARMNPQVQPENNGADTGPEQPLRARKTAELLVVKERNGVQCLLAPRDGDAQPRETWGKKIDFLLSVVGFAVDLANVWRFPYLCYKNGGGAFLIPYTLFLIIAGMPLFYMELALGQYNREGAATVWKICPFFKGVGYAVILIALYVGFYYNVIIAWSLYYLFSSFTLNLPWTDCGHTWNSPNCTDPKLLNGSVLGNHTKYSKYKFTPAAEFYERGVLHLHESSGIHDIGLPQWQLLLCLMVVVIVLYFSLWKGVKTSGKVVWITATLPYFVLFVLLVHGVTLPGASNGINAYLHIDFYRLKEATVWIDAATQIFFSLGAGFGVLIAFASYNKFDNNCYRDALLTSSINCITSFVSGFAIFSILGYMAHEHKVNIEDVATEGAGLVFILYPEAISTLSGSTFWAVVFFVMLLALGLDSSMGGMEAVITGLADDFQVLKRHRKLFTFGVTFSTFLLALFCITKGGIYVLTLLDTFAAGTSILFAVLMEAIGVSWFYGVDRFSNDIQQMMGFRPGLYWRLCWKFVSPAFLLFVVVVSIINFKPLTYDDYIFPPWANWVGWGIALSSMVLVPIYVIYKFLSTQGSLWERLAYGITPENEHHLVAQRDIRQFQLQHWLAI

CNCc1ccccc1Cc1ccc2[nH]c(C(N)=O)cc2c1 [Compound 40, 5-(2-Methylaminomethyl-benzyl)-1H-indole-2-carboxylic acid amide]
Ki [1]: ~3.98 nM
Ki [2]: ~5.01 nM
